The values below come from patent US4728656A, “2,2-alkyldiylbis(thio)bis(imidazoles) useful for inhibition of the 5-lipoxygenase pathway” (SmithKline Beckman Corporation, priority 1986, dated 1988).

Read-outs that look alike come from different tables or passages of the source.

In one assay the test system is myocardial infarction. The conditions noted are these: dogs; Mollane et al.; cited from earlier work.
The next assay concerns the target T1, 5-Lipoxygenase (Rattus norvegicus, UniProt P12527).
T1 construct: The broken cell extract was then centrifuged at 10,000×g for 20 minutes (min) and the supernatant centrifuge at 100,000×g for 60 min; host or cells: RBL-1 cells, high speed (100,000×g) supernatant
T1 sequence (P12527 1-673): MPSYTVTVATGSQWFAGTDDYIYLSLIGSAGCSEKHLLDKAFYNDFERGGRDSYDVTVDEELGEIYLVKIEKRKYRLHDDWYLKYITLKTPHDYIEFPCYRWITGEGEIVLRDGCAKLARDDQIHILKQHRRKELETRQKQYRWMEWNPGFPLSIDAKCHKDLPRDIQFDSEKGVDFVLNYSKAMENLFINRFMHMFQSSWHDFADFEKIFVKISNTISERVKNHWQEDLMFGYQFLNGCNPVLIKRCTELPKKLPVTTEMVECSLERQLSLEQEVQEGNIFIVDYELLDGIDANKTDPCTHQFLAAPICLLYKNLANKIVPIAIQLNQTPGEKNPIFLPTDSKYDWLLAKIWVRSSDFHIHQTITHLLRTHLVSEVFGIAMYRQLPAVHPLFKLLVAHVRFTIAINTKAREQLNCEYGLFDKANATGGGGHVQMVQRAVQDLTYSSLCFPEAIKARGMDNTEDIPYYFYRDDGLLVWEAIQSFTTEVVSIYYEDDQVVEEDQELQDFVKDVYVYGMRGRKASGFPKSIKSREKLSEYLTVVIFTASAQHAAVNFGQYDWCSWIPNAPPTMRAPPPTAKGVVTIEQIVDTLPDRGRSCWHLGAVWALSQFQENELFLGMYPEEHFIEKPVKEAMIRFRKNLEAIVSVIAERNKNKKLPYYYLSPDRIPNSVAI
The experiment in a line: Assay of 5-lipoxygenase activity in RBL-1 cell extract (high speed supernatant). The note with it: 25 μM arachidonic acid, 5 min at 37° C. The class given is biochemical. As for the experimental part: For in vitro experiments, compounds were dissolved at appropriate concentrations in ethanol (final concentration 1.0%) and then diluted to final concentrations using the buffers indicated in the text.
The activities of these enzymes in extracts of RBL-1 cells were assayed using the method of Jakschik and Lee, Nature, 287, 51-52 (1980). RBL--1 cells were obtained from the American Type Culture Collection (#CRL 1378) and were grown at 37° C. (5% CO2 in air) in spinner culture in MEM supplemented with 10% heat inactivated fetal calf serum. Harvested cells were washed with 50 mM sodium phosphate buffer, pH 7.0, containing 1 mM EDTA and 0.1% gelatin, resuspended in fresh buffer (5×10^7 cells/ml) and disrupted by nitrogen cavitation using the Parr bomb at 750 psi for 10 min. The broken cell extract was then centrifuged at 10,000×g for 20 minutes (min) and the supernatant centrifuge at 100,000×g for 60 min. Aliquots (0.25 mls) of the supernatant were preincubated with or without drugs for 10 min, after which 12 mM CaCl2 was added and the reaction was initiated with […] arachidonic acid-1-^14 C (final concentration was 25 μM; specific activity 20,000 dpm/nmole). After incubation for 5 min at 37° C., the reaction was terminated by addition of 2 volumes (0.5 ml) ice cold acetone and the sample was allowed to deproteinize on ice for 10 min prior to centrifugation at 1,000×g for 10 min. The deproteinized supernatant was adjusted to pH 3.5 with 2N formic acid and extracted with 2 volumes of ice cold ethyl acetate. The extracted samples were dried under argon, redissolved in ethyl acetate and applied to Whatman LK5D thin layer chromatography (TLC) plates which were developed using the A-9 solvent system [organic phase of ethyl acetate: 2,2,5-trimethylpentane:acetic acid:water (110:50:20:10)] described by Hamberg and Samuelsson, J. Biol. Chem., 241, 257-263 (1966). Arachidonic acid, 5-HETE, LTB4 and PGD2 were quantified with a Berthold LB 2832 autoscanner.
Under these conditions, only the 5-lipoxygenase pathway metabolites were detectable. The 5-HETE and di-HETEs were formed at a linear rate, and substantial amounts of the arachidonic acid-1-^14 C substrate were utilized.
Drug-induced effects on enzyme activities are described as the concentration of drug causing a 50% inhibition of metabolite synthesis (IC50).

Assay [1] concerns Arachidonic Acid-Induced Mouse Ear Inflammation. Briefly: Arachidonic acid-induced mouse ear inflammation (ear swelling). The note with it: p.o. The arrangement: key to % Inhibition of Ear Swelling: *: p < .05; **: p < .01; ***: p < .001; NS: not significant. The class given is in vivo, male Balb/c mice. As for the experimental part: In the following Examples male Balb/c mice (20-28 g) were used. All mice were obtained from Charles River Breeding Laboratories, Kingston, N.Y. Within a single experiment, mice were sex and age matched.
Compounds of Formula (I), indomethacin, naproxen, and ibuprofen were each used as the free base. The compounds were homogenized in 0.5% tragacanth. Compounds were administered by gavage at the indicated dose in a final volume of 10 ml/kg.
Arachidonic acid in acetone (2 mg/20 μl ) was applied to the inner surface of the left ear. The thickness of both ears was then measured with a dial micrometer one hour after treatment, and the data were expressed as the change in thickness (10^-3 cm) between treated and untreated ears.
Test compounds were given orally in 0.5% tragacanth at the times indicated in the text prior to the topical application of arachidonic acid.
Parenteral administration of compound was accomplished by subcutaneous injection of solution as indicated.

The subject of another assay is rheumatoid arthritis. The conditions noted are these: preliminary observation; Neumann et al.; cited from earlier work.
Assay [2] has as its system LTB4 and 5-HETE production. The conditions noted are these: in vitro; Stenson et al.; cited from earlier work.
A further assay has as its system lipoxygenase. The conditions noted are these: in vitro; cited from earlier work.
Another assay relates to psoriasis. The conditions noted are these: Allen et al.; cited from earlier work.
Where [3] appears, read: 5HETE production by RBL1 high speed supernatant, read-out: 5-HETE IC50.
[4] abbreviates: LTB4 production by RBL1 high speed supernatant, read-out: LTB4 IC50.

Take `NC1=NN(c2cccc(C(F)(F)F)c2)CC1` [BW755-C]: in the assay with myocardial infarction, the “area of infarction following coronary occlusion” value is “reduced” and the “leukocyte infiltration into the ischaemic tissue” value is on record as “inhibition of leukocyte infiltration into the ischaemic tissue”.

Take `Fc1ccc(-c2nc(SCCSc3nc(-c4ccc(F)cc4)c(-c4ccc(F)cc4)[nH]3)[nH]c2-c2ccc(F)cc2)cc1` [Compound 1, 2,2'-[ethanediylbis(thio)]bis[4,5-bis(4-fluorophenyl)-1H-imidazole]]: the IC50 on 5-Lipoxygenase (setting [3]) is 18.5 µM; at 5-Lipoxygenase (setting [4]), 3.3 µM.

Regarding `O=C(CSc1nc(-c2ccc(F)cc2)c(-c2ccncc2)[nH]1)CSc1nc(-c2ccc(F)cc2)c(-c2ccncc2)[nH]1` [Compound 2, 2-2'-[1,3-propan-2-onediylbis(thio)]bis[5-(4-pyridyl)-4-(4-fluorophenyl)-1H-imidazole]], the “% Inhibition of Ear Swelling” value in assay [1] (Table I, 2 mg arachidonic acid, thickness 1 h after treatment) is listed as “NS”. Besides, the IC50 on 5-Lipoxygenase (setting [3]) was 1.7 µM; on 5-Lipoxygenase (setting [4]), 0.65 µM.

Regarding `O=C(CSc1nc(-c2ccc(F)cc2)c(-c2ccc(F)cc2)[nH]1)CSc1nc(-c2ccc(F)cc2)c(-c2ccc(F)cc2)[nH]1` [Compound 3, 2,2'-[1,3-propan-2-onediylbis(thio)]bis[4,5-bis-(4-fluorophenyl)-1H-imidazole]], the IC50 on 5-Lipoxygenase (setting [3]) came to 5.3 µM; on 5-Lipoxygenase (setting [4]), 1.6 µM.

For the compound `O=C(O)c1cc(/N=N/c2ccc(S(=O)(=O)Nc3ccccn3)cc2)ccc1O` [Sulfasalazine], the “efficacy in rheumatoid arthritic patients” value in the assay with rheumatoid arthritis was “efficacy, including remission”. Besides, the “inhibition of LTB4 and 5-HETE production” value in assay [2] was “inhibit LTB4 and 5-HETE production in vitro”.

As to `CC(C(=O)O)c1ccc2oc(-c3ccc(Cl)cc3)nc2c1` (stereo not shown) [benoxaprofen], the lipoxygenase inhibitory activity result in the assay on lipoxygenase is given as “in vitro lipoxygenase inhibitory activity”. In addition, the effect on psoriasis entry in the assay with psoriasis is “promising effect”.

As for `CC(C)Cc1ccc(C(C)C(=O)O)cc1` (stereo not shown) [ibuprofen], the antiinflammatory activity result in assay [1] (250 mg/kg) is recorded as “did not exhibit detectaole antiinflammatory activity”.

With `COc1ccc2c(c1)c(CC(=O)O)c(C)n2C(=O)c1ccc(Cl)cc1` [indomethacin], the antiinflammatory activity result in assay [1] (10 mg/kg) is given as “did not exhibit detectaole antiinflammatory activity”.

Take `COc1ccc2cc([C@H](C)C(=O)O)ccc2c1` [naproxen]: in assay [1] (100 mg/kg), the antiinflammatory activity entry is “did not exhibit detectaole antiinflammatory activity”.

By IC50 is commonly meant the point on the concentration scale where inhibition reaches its midpoint.
